The text below walks through data of US20180325909A1, “COMBINATION TREATMENT OF SPECIFIC FORMS OF EPILEPSY” (ZOGENIX INTERNATIONAL LIMITED, priority 2015, published 2018).

Data set [1] concerns homozygous scn1Lab−/− mutants. The class given is in vivo, Danio rerio. As to conditions: for locomotor-reducing activity of functional analogs: at MTC, in most cases observed after short and long treatment; for activity in the Zebrafish model of epilepsy: following both acute and chronic application. The method, then: (§1) Zebrafish embryos (Danio rerio) heterozygous for the scn1Lab mutation (scn1Lab+/−) were backcrossed with Tupfel longfin wildtype (WT scn1Lab+/+). Adult zebrafish were housed at 28.0° C., on a 14/10 hour light/dark cycle under standard aquaculture conditions. Fertilized eggs were collected via natural spawning. Anaesthetized fish (tricaine 0.02%) were fin-clipped and genotyped by PCR. After genotyping, samples were purified (MinElute PCR Purification Kit) and sequenced by LGC Genomics. Age-matched Tupfel longfin wildtype larvae were used as control group (WT scn1Lab+/+).
(§2) To evaluate the locomotor activity of homozygous scn1Lab−/− mutants and control WT scn1Lab+/+, zebrafish larvae were placed in a 96-well plate in 100 μL of embryo medium from 4 to 8 dpf. Each day the larvae were tracked in an automated tracking device (ZebraBox™ apparatus; Viewpoint, Lyon, France) for 10 min after 30 min habituation (100-second integration interval). All recordings were performed at the same time during daytime period. The total distance in large movements was recorded and quantified using ZebraLab™ software (Viewpoint, Lyon, France). Data were pooled together from at least three independent experiments with at least 24 larvae per condition.
(§3) Scn1Lab−/− mutants and WT scn1Lab+/+ larvae were arrayed in the same plate and treated at 6 days post fertilization (dpf) with fenfluramine (25 μM), functional analogs (at their MTC) or VHC in individual wells of a 96-well plate. After incubation at 28° C. on a 14/10 hour light/dark cycle and 30-min chamber habituation 6 and 7 dpf larvae were tracked for locomotor activity for 10 min (100-second integration interval) under dark conditions. An incubation time of 1.5 hours is further referred as short treatment (6 dpf). Furthermore these larvae were analyzed after more than 22 hours incubation (7 dpf), i.e. long treatment. The total locomotor activity was quantified using the parameter lardist and plotted in cm. Data were pooled together from two (5-HT1B-, 5-HT1F-, 5-HT3-, 5-HT4-, 5-HT5A-, 5-HT6-agonist and all antagonists except 5-HT1B- and 5-HT7-antagonists) or three (fenfluramine, 5-HT1A-, 5-HT1D-, 5-HT1E-, 5-HT2A-, 5-HT2B-, and 5-HT2C-agonist) independent experiments with at least 9 larvae per treatment condition.

Data set [2] has as its system homozygous scn1Lab−/− mutants. In kind it is in vivo, Danio rerio. As to conditions: for reduction of epileptiform activity (in words, compared with fenfluramine): long treatment at MTC (5-HT2B-agonist 3.125 μM), at least frequency and mean cumulative duration. The protocol: Epileptiform activity was measured by open-field recordings in the zebrafish larval forebrain at 7 dpf. Homozygous scn1Lab−/− mutants and control WT scn1Lab+/+ were embedded in 2% low-melting-point agarose (Invitrogen) to position a glass electrode into the forebrain. […] Single recordings were performed for 10 min. […] Spontaneous epileptiform events were taken into account when the amplitude exceeded three times the background noise and lasted longer than 50 milliseconds (ms).
Epileptiform activity was measured by open-field recordings in the zebrafish larval forebrain at 7 dpf, as described above. […] Recordings of 7 dpf larvae, from at least 8 scn1Lab−/− mutant larvae were taken per experimental condition. […] Electrographic recordings were quantified for the different treatment conditions.

The target in a further data set is T1, 5-HT2C receptor (Homo sapiens, UniProt P28335).
T1 sequence (P28335 33-458): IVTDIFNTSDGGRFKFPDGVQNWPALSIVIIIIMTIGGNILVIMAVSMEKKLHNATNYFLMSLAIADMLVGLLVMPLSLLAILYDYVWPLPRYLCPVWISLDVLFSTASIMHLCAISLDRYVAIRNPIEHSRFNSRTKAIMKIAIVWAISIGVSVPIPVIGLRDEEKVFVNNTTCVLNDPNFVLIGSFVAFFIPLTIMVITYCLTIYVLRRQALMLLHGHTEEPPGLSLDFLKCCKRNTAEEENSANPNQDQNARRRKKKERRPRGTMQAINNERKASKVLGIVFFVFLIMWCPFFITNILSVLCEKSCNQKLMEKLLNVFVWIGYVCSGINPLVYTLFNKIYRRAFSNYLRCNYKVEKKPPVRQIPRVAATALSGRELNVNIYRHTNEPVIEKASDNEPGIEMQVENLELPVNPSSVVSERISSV
As to conditions: cited from earlier work.

In data set [3] the test system is Dravet syndrome patients. As to conditions: Chiron et al. 2011; cited from earlier work.
The next data set deals with scn1Lab−/− larvae. As to the kind of experiment: Fenfluramine combined with 5-HT subtype antagonists, locomotor activity of scn1Lab-/- larvae. The class given is in vivo, Danio rerio. As to conditions: antagonist plus fenfluramine. The protocol: as §3
No highly specific 5-HT1E-antagonist is currently available so it was impossible to explore this 5-HTsubtype receptor in the current assay (Leung, 2009).

For another data set, the system named is WT scn1Lab+/+ larvae. Description: Locomotor activity of age-matched wildtype zebrafish larvae. As to conditions: 'with exception of' means the compound did decrease wildtype activity. The class given is in vivo, Danio rerio. The protocol:
as §1, §2
as §3, with “Data were pooled together from two (5-HT1B-, 5-HT1F-, 5-HT3-, 5-HT4-, 5-HT5A-, 5-HT6-agonist and all antagonists except 5-HT1B- and 5-HT7-antagonists) or three (fenfluramine, 5-HT1A-, 5-HT1D-, 5-HT1E-, 5-HT2A-, 5-HT2B-, and 5-HT2C-agonist) independent experiments with at least 9 larvae per treatment condition.” left out

Data set [4] has as its system Dravet syndrome patients. As to conditions: long term treatment with fenfluramine 0.12-0.90 mg/kg/day; Ceulemans et al. 2012; cited from earlier work.
Setting [5] is: long treatment, fenfluramine 25 μM, 7 dpf.

Entries after “also recorded” stand apart in the source; their conditions may differ. Like-named read-outs stand apart in the source and are kept apart here.

Turning to `O=C1Nc2ccc(Cl)cc2[C@@](C#CC2CC2)(C(F)(F)F)O1` [efavirenz, (4S)-6-chloro-4-(2-cyclopropylethynyl)-4-(trifluoromethyl)-1H-3,1-benzoxazin-2-one], in data set [1] (tested at MTC), the “inhibition of locomotor activity in mutant fish embryos (Example 2)” value is “potent inhibitors”. In data set [2] (tested at MTC), the “inhibition of epileptiform activity in mutant fish embryos (Example 2)” value was “potent inhibitors”.

As for `C[C@H]1CNCCc2ccc(Cl)cc21.Cl` [lorcaserin, (1R)-8-chloro-1-methyl-2,3,4,5-tetrahydro-1H-3-benzazepine], in data set [1], the “locomotor-reducing activity of functional analogs” value is on record as “locomotor-reducing activity” and the “activity in the Zebrafish model of epilepsy” value (“activity … of epilepsy” for short) was “high levels of activity”. Besides, the “affinity for the 5-HT2C receptor vs. the 5-HT2B” value at 5-HT2C receptor was 100 ×. Further, the “reduction of epileptiform activity (in words, compared with fenfluramine)” value (shortened to “reduction of epileptiform activity”) in data set [2] (7 dpf) was “comparable effects”.

For `NC(=O)N1c2ccccc2C=Cc2ccccc21` [carbamazepine], the “patients with worsening of symptoms” value in the data set with Dravet syndrome patients [3] is given as approximately 60%.

As to `O=C(c1ccc(F)cc1)C1CCN(CCn2c(=O)[nH]c3ccccc3c2=O)CC1` [5-HT2A-antagonist, ketaserine], in the data set on scn1Lab−/− larvae (long treatment, p<0.05), the “counteraction of the fenfluramine-elicited decrease in locomotor activity, long treatment” value is given as “not after a long treatment”. Further, the “effect of antagonist on the fenfluramine-elicited decrease in large movements” value in the data set on scn1Lab−/− larvae (treatment time not stated) was “not seen”.

Consider `Cc1nn(C)c(C)c1-c1cccc2c1CC[C@H](N(C)C)C2` [5-HT7-agonist, (2S)-(+)-5-(1,3,5-Trimethylpyrazol-4-yl)-2-(dimethylamino)tetralin], for which, in data set [1], the “locomotor-reducing activity of functional analogs” value is recorded as “locomotor-reducing activity” and the “activity … of epilepsy” value is reported as “high levels of activity”.

On to `CN1CCC(c2c[nH]c3ccc(O)cc23)CC1` [5-HT1E-agonist, 1H-Indol-5-ol, 3-(1-methyl-4-piperidinyl)-], for which, in the data set on WT scn1Lab+/+ larvae, the “locomotor activity in wildtype larvae” value is “did not decrease the locomotor activity”. The “locomotor-reducing activity of functional analogs” value in data set [1] is reported as “locomotor-reducing activity”. In data set [2] (7 dpf), the “reduction of epileptiform activity” value is reported as “not able to reduce epileptiform activity”.

For the molecule `CCNC(C)Cc1cccc(C(F)(F)F)c1` (centres unmarked) [fenfluramine], the “activity … of epilepsy” value in data set [1] was “high levels of activity”. Moreover, the “locomotor activity after long treatment” value in data set [1] (long treatment (22 h), fenfluramine 25 μM, 7 dpf, p<0.0001) is “lowers locomotor activity; also recorded: significantly decreased”. In addition, the patients seizure-free with Dravet syndrome patients [4] is 70%. Besides, the “reduction of epileptiform activity” value in data set [2] (7 dpf) is given as “anti-epileptiform activity”. Moreover, in data set [2] (setting [5]), the “frequency of epileptiform events” value amounted to 1.7±0.4046 events/10-min recording, the “mean cumulative duration of epileptiform events” value amounted to 200.8±50.38 ms/10-min recording and the “mean duration of epileptiform events” value is on record as 85.11±18.28 ms/10-min recording.

In the case of `COc1ccc(CNC(=O)/C=C/c2ccc3[nH]cc(CCN(C)C)c3c2)cc1` [5-HT1D-agonist, 3-[3-(2-Dimethylaminoethyl)-1H-indol-5-yl]-N-(4-methoxybenzyl)acrylamide], in the data set on WT scn1Lab+/+ larvae, the “locomotor activity in wildtype larvae” value is reported as “did not decrease the locomotor activity”. Further, in data set [1], the “locomotor-reducing activity of functional analogs” value is given as “locomotor-reducing activity” and the “activity … of epilepsy” value is reported as “high levels of activity”. The “reduction of epileptiform activity” value in data set [2] (7 dpf) is “comparable effects”.

Consider `CN1C[C@H](C(=O)N[C@]2(C)O[C@@]3(O)[C@@H]4CCCN4C(=O)[C@H](Cc4ccccc4)N3C2=O)C=C2c3cccc4[nH]cc(c34)C[C@H]21` [ergotamine, (6aR,9R)—N-((2R,5S,10aS,10bS)-5-benzyl-10b-hydroxy-2-methyl-3,6-dioxooctahydro-2H-oxazolo[3,2-a]pyrrolo[2,1-c]pyrazin-2-yl)-7-methyl-4,6,6a,7,8,9-hexahydroindolo[4,3-fg] quinoline-9-carboxamide], for which the “locomotor activity in wildtype larvae” value in the data set on WT scn1Lab+/+ larvae is “did not decrease the locomotor activity”. In data set [1], the “locomotor-reducing activity of functional analogs” value was “interesting activity” and the “activity … of epilepsy” value is on record as “high levels of activity”. For the same molecule, in data set [1] (listed as 5-HT5A-agonist), the “locomotor-reducing activity of functional analogs” value was “locomotor-reducing activity”.

For `Nc1nnc(-c2cccc(Cl)c2Cl)c(N)n1` [lamotrigine], in the data set with Dravet syndrome patients [3], the “patients with worsening of symptoms” value is “up to 80%”.

As to `C=CC(N)CCC(=O)O` (centres unmarked) [vigabatrin], in the data set on Dravet syndrome patients [3], the “patients with worsening of symptoms” value is recorded as approximately 60%.

With `CC(N)Cc1c[nH]c2ccc(OCc3cccs3)cc12` (centres unmarked) [5-HT2B agonist], the “activity … of epilepsy” value in data set [1] is listed as “did not show any activity”.
